Consider 34 molecules from publication PMC5862516 (PLoS Neglected Tropical Diseases, 2018).

By viability is commonly meant a per cent measure of how many cells are alive, often set against a control. Read a high viability as less harm to the cells.

The structures appear in SMILES notation. Like-named read-outs stand apart in the source and are kept apart here.

Data set [1] concerns SOSV minigenome. As to conditions: Huh7 cells; for Minigenome activity (Relative ZsG fluorescence): relative to mock-treated controls.
A further data set deals with rSOSV/ZsG. The data set can be described thus: microbe, parasite or virus in culture. The data set is classed as cell-based. As to conditions: Sosuga virus, Huh-7, read-out: rSOSV/ZsG Screen EC50.
For data set [2], the system named is SOSV minigenome. The data set can be described thus: microbe, parasite or virus in culture. As to conditions: Sosuga virus; for activity at 0.05 µM / activity at 0.5 µM / activity at 5 µM: Huh-7, 72 h, read-out: Minigenome activity (Relative ZsG fluorescence); for EC50: Huh-7, read-out: Minigenome Screen EC50.
A short description of the next data set: in vitro. As to conditions: human.
A further data set deals with rSOSV. In words: microbe, parasite or virus in culture. The data set is classed as cell-based. As to conditions: Sosuga virus, Huh-7, 48 h, read-out: EC50 (rSOSV protein immunofluorescence).
For data set [3] the following is noted: human, in vivo, 125 mg/kg/day; cited from earlier work.
In the next data set the test system is Huh7 cells. As to conditions: human.

For the molecule `C[C@@]1(F)[C@H](O)[C@@H](CO)O[C@H]1n1ccc(N)nc1=O` [PSI-6130], the “Minigenome activity (Relative ZsG fluorescence)” value in the data set on SOSV minigenome [1] (50 nM) came to 0.84; in the data set on SOSV minigenome [1] (500 nM) it was 0.85; with SOSV minigenome [1] (5000 nM), 0.91.

Regarding `NC(=O)c1ncn([C@@H]2O[C@H](CO)[C@@H](O)[C@H]2O)n1` [Ribavirin], the EC50 in the data set with rSOSV/ZsG is 6.1 ± 0.09 µM. Further, in the data set with SOSV minigenome [2], the activity at 0.05 µM was 136%, the activity at 0.5 µM was found to be 113%, the activity at 5 µM was found to be 78% and the EC50 stood at 5.91 ± 0.85 µM. For the same molecule, in “in vitro”, the CC50 was over 50 µM.

Consider `NC(=O)c1nc(F)cnc1O` [T-705], for which the “Minigenome activity (Relative ZsG fluorescence)” value in the data set with SOSV minigenome [1] (50 nM) was 1.11; in the data set with SOSV minigenome [1] (500 nM), 1.17; with SOSV minigenome [1] (5000 nM), 1.05.

With `C[C@@]1(O)[C@H](O)[C@@H](CO)O[C@H]1n1ccc(=O)[nH]c1=O` [2′-C-Methyluridine], in the data set with SOSV minigenome [2], the activity at 0.05 µM turned out to be 132%, the activity at 0.5 µM came out at 101% and the activity at 5 µM came out at 125%.

`Cc1cn([C@H]2C=C[C@@H](CO)O2)c(=O)[nH]c1=O` [Stavudine]: in the data set with SOSV minigenome [2], the activity at 0.05 µM worked out at 126%, the activity at 0.5 µM was found to be 104% and the activity at 5 µM worked out at 115%.

As to `[N-]=[N+]=Nc1cn([C@@H]2O[C@H](CO)[C@@H](O)[C@H]2O)c(=O)[nH]c1=O` [5-Azidouridine], in the data set with SOSV minigenome [2], the activity at 0.05 µM turned out to be 114%, the activity at 0.5 µM came to 104% and the activity at 5 µM came out at 107%.

`C[C@@]1(O)[C@H](O)[C@@H](CO)O[C@H]1n1ccc(N)nc1=O` [2′-C-Methylcytidine]: in the data set on SOSV minigenome [2], the activity at 0.05 µM is 124%, the activity at 0.5 µM is 104% and the activity at 5 µM stood at 114%.

Turning to `[N-]=[N+]=N[C@]1(CO)O[C@@H](n2ccc(N)nc2=O)[C@H](O)[C@@H]1O` [R-1479], the entries for the “Minigenome activity (Relative ZsG fluorescence)” value in the data set on SOSV minigenome [1] (50 nM), in the data set with SOSV minigenome [1] (500 nM) and with SOSV minigenome [1] (5000 nM) were 0.91, 0.84 and 0.73, respectively.

For `C[C@H](Cn1cnc2c(N)ncnc21)OCP(=O)(O)O` [Tenofovir], in the data set with SOSV minigenome [2], the activity at 0.05 µM worked out at 110%, the activity at 0.5 µM was 106% and the activity at 5 µM came to 107%.

On to `O=c1[nH]c(=O)n([C@@H]2O[C@H](CO)[C@@H](O)[C@H]2O)cc1F` [5-fluorouridine], for which, in the data set on SOSV minigenome [2], the activity at 0.05 µM is 112%, the activity at 0.5 µM worked out at 25%, the activity at 5 µM is 10% and the EC50 came to 0.29 ± 0.13 µM. The “Extent of minigenome signal inhibition and cytotoxicity” value in the data set with SOSV minigenome [1] (dose-response analysis) was “did not completely inhibit minigenome signal even at the highest concentrations evaluated”. In the data set “in vitro”, this molecule displayed a viability of over 80% and a CC50 of over 50 µM.

For the molecule `CC[C@H]1OC(=O)[C@H](C)[C@@H](O[C@H]2C[C@@](C)(OC)[C@@H](O)[C@H](C)O2)[C@H](C)[C@@H](O[C@@H]2O[C@H](C)C[C@H](N(C)C)[C@H]2O)[C@](C)(O)C[C@@H](C)CN(C)[C@H](C)[C@@H](O)[C@]1(C)O` [Azithromycin], in the data set with SOSV minigenome [2], the activity at 0.05 µM came to 102%, the activity at 0.5 µM stood at 106% and the activity at 5 µM came to 111%.

Turning to `Nc1ncn([C@@H]2O[C@H](CO)[C@@H](O)[C@H]2O)c(=O)n1` [5-Azacytidine], in the data set with SOSV minigenome [2], the activity at 0.05 µM was 146%, the activity at 0.5 µM stood at 111% and the activity at 5 µM was 108%.

As for `O=c1[nH]c(=O)n([C@@H]2O[C@H](CO)[C@@H](O)[C@H]2O)cc1Br` [5-Bromouridine], in the data set on SOSV minigenome [2], the activity at 0.05 µM was found to be 97%, the activity at 0.5 µM stood at 92% and the activity at 5 µM amounted to 122%.

`Nc1nc(Cl)nc2c1ncn2[C@@H]1O[C@H](CO)[C@@H](O)[C@H]1O` [2-Chloroadenosine]: in the data set with SOSV minigenome [2], the activity at 0.05 µM came to 148%, the activity at 0.5 µM came out at 143% and the activity at 5 µM was found to be 145%.

As for `[N-]=[N+]=Nc1nc2c(N)ncnc2n1[C@@H]1O[C@H](CO)[C@@H](O)[C@H]1O` [8-Azidoadenosine], in the data set with SOSV minigenome [2], the activity at 0.05 µM is 120%, the activity at 0.5 µM was found to be 122% and the activity at 5 µM was 1%.

In the case of `CC(C)OC(=O)[C@H](C)N[P@](=O)(OC[C@H]1O[C@@H](n2ccc(=O)[nH]c2=O)[C@](C)(F)[C@@H]1O)Oc1ccccc1` [PSI-7977], in the data set on SOSV minigenome [2], the activity at 0.05 µM stood at 102%, the activity at 0.5 µM amounted to 102% and the activity at 5 µM is 89%.

Take `Nc1ncnc2c1nnn2[C@@H]1O[C@H](CO)[C@@H](O)[C@H]1O` [8-Azaadenosine]: in the data set on SOSV minigenome [2], the activity at 0.05 µM was determined as 146%, the activity at 0.5 µM worked out at 85% and the activity at 5 µM was determined as 2%.

As to `Nc1ncnc2c1ncn2[C@@H]1O[C@H](CO)C[C@H]1O` [Cordycepin], in the data set with SOSV minigenome [2], the activity at 0.05 µM was 128%, the activity at 0.5 µM amounted to 104% and the activity at 5 µM was 101%.

Regarding `Cc1cn([C@H]2C[C@H](N=[N+]=[N-])[C@@H](CO)O2)c(=O)[nH]c1=O` [Zidovudine], in the data set on SOSV minigenome [2], the activity at 0.05 µM is 123%, the activity at 0.5 µM worked out at 93% and the activity at 5 µM is 113%.

Take `O=c1cnn([C@@H]2O[C@H](CO)[C@@H](O)[C@H]2O)c(=S)[nH]1` [6-Aza-2-thiouridine]: in the data set on SOSV minigenome [2], the activity at 0.05 µM was 128%, the activity at 0.5 µM was determined as 95% and the activity at 5 µM came to 110%.

For `CC(C)C(=O)OC[C@@]1(N=[N+]=[N-])O[C@@H](n2ccc(N)nc2=O)[C@H](OC(=O)C(C)C)[C@@H]1OC(=O)C(C)C` [Balapiravir (R1626), Balapiravir], in the data set on SOSV minigenome [2], the activity at 0.05 µM came out at 105%, the activity at 0.5 µM is 93% and the activity at 5 µM was 90%.

Turning to `Nc1ncnc2c([C@@H]3N[C@H](CO)[C@@H](O)[C@H]3O)c[nH]c12` [BCX-4430], in the data set on SOSV minigenome [2], the activity at 0.05 µM turned out to be 133%, the activity at 0.5 µM was 105% and the activity at 5 µM was 118%.

For the molecule `CO[C@@H]1[C@H](O)[C@@H](CO)O[C@H]1n1ccc(N)nc1=O` [2′-O-Methylcytidine], in the data set with SOSV minigenome [2], the activity at 0.05 µM is 129%, the activity at 0.5 µM was found to be 104% and the activity at 5 µM came out at 119%.

As to `Cc1cn([C@@H]2O[C@H](CO)[C@@H](O)[C@H]2O)c(=O)nc1N` [5-Methylcytidine], in the data set on SOSV minigenome [2], the activity at 0.05 µM was determined as 124%, the activity at 0.5 µM was found to be 110% and the activity at 5 µM is 125%.

Turning to `O=c1cnn([C@@H]2O[C@H](CO)[C@@H](O)[C@H]2O)c(=O)[nH]1` [6-azauridine], the EC50 in the data set with rSOSV/ZsG was determined as 7.99 ± 1.32 µM. In addition, in the data set with SOSV minigenome [2], the activity at 0.05 µM was 120%, the activity at 0.5 µM is 103%, the activity at 5 µM worked out at 46% and the EC50 worked out at 5.17 ± 1.01 µM. For the same molecule, the EC50 in the data set on rSOSV is 8.9 µM. Further, in the data set “in vitro”, the viability was over 80% and the CC50 is over 50 µM.

Regarding `COc1c(-c2ccc3cc(NS(C)(=O)=O)ccc3c2)cc(-n2ccc(=O)[nH]c2=O)cc1C(C)(C)C` [ABT-333], in the data set with SOSV minigenome [2], the activity at 0.05 µM is 127%, the activity at 0.5 µM is 108% and the activity at 5 µM stood at 105%.

Consider `CO[C@@H]1[C@H](O)[C@@H](CO)O[C@H]1n1ccc(=O)[nH]c1=O` [2′-O-Methyluridine], for which, in the data set on SOSV minigenome [2], the activity at 0.05 µM stood at 150%, the activity at 0.5 µM amounted to 104% and the activity at 5 µM turned out to be 142%.

With `CC(=O)OC[C@H]1O[C@@H](n2ncc(=O)[nH]c2=O)[C@H](OC(C)=O)[C@@H]1OC(C)=O` [6-azauridine triacetate], in data set [3], the plasma concentrations is at least 100 µM.

As to `Nc1ccn([C@@H]2O[C@H](CO)[C@@H](O)[C@H]2F)c(=O)n1` [2′-deoxy-2′-fluorocytidine], in the data set with rSOSV/ZsG, the EC50 is 1.48 ± 0.22 µM. In the data set on SOSV minigenome [2], the activity at 0.05 µM worked out at 141%, the activity at 0.5 µM was 91%, the activity at 5 µM was found to be 13% and the EC50 came to 1.31 ± 0.15 µM. Moreover, the EC50 in the data set with rSOSV was 4.09 µM. For the same molecule, in “in vitro”, the viability is over 80% and the CC50 is over 50 µM.

Consider `C[C@@]1(O)[C@H](O)[C@@H](CO)O[C@H]1n1ccc2c(N)ncnc21` [7-DMA], for which the “Minigenome activity (Relative ZsG fluorescence)” value in the data set on SOSV minigenome [1] (50 nM) amounted to 1.26; with SOSV minigenome [1] (500 nM) it was 1.02; in the data set on SOSV minigenome [1] (5000 nM), 1.06.

As for `O=c1[nH]c(=O)n([C@@H]2O[C@H](CO)[C@@H](O)[C@H]2O)cc1Cl` [5-Chlorouridine], in the data set on SOSV minigenome [2], the activity at 0.05 µM was found to be 119%, the activity at 0.5 µM stood at 125% and the activity at 5 µM is 146%.

For the molecule `COc1c(C)c2c(c(O)c1C/C=C(\C)CCC(=O)O)C(=O)OC2` [Mycophenolic acid], the EC50 with rSOSV/ZsG was found to be 0.33 ± 0.04 µM. In the data set with SOSV minigenome [2], the activity at 0.05 µM amounted to 89%, the activity at 0.5 µM was 14% and the activity at 5 µM was 1%. Further, in the data set with rSOSV, the EC50 came to 0.48 µM. In addition, in the data set with Huh7 cells, the CC50 is 1.74 ± 0.42 µM. Further, the “Minigenome Screen EC50” value in the data set on SOSV minigenome [1] (ZsG fluorescence 72 hpt, normalized to mock-treated (DMSO) cells, listed as MPA) is “sub-micromolar”. In addition, in “in vitro”, the viability was over 80% and the CC50 was found to be 1.7 µM.

As for `CC(C)C(=O)OC[C@H]1O[C@@H](n2ccc(N)nc2=O)[C@](C)(F)[C@@H]1OC(=O)C(C)C` [R-7128], the “Minigenome activity (Relative ZsG fluorescence)” value in the data set with SOSV minigenome [1] (50 nM) turned out to be 0.84; in the data set on SOSV minigenome [1] (500 nM), 0.87; with SOSV minigenome [1] (5000 nM), 0.99.

For `C#C[C@@]1(O)[C@H](O)[C@@H](CO)O[C@H]1n1ccc2c(N)ncnc21` [NITD008], the “Minigenome activity (Relative ZsG fluorescence)” value is given as 1.35 with SOSV minigenome [1] (50 nM), 1.07 in the data set with SOSV minigenome [1] (500 nM) and 1.13 in the data set with SOSV minigenome [1] (5000 nM).
